Measurements published in ChEMBL document CHEMBL1201862, “PubChem BioAssay data set” (2004).
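The compound was tested at five concentrations on cells cultured in 96-well plates, with a 48-hour exposure period. The concentration for 50% growth inhibition is given as GI50.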 Calls of active or inactive are those of the source. No stated cut-off is given here; in the data, active = GI50 up to about 1.1 µM and inactive = higher.

How the values were obtained:
Experiment in all cases: inhibition of tumour cell growth, NCI panel, 48 h
A498 = tested on: A498
SR = tested on: SR
CCRF-CEM = tested on: CCRF-CEM
SK-MEL-5 = tested on: SK-MEL-5
NCI-H23 = tested on: NCI-H23
UO-31 = tested on: UO-31
UACC-62 = tested on: UACC-62
NCI-H226 = tested on: NCI-H226
SK-MEL-28 = tested on: SK-MEL-28
UACC-257 = tested on: UACC-257
NCI-H522 = tested on: NCI-H522
M14 = tested on: M14
RXF 393 = tested on: RXF 393
SK-OV-3 = tested on: SK-OV-3
OVCAR-5 = tested on: OVCAR-5
MCF7 = tested on: MCF7
Hs-578T = tested on: Hs-578T
HCT-15 = tested on: HCT-15
DU-145 = tested on: DU-145
PC-3 = tested on: PC-3

SMILES	GI50 (A498)	GI50 (SR)	GI50 (CCRF-CEM)	GI50 (SK-MEL-5)	GI50 (NCI-H23)	GI50 (UO-31)	GI50 (UACC-62)	GI50 (NCI-H226)	GI50 (SK-MEL-28)	GI50 (UACC-257)	GI50 (NCI-H522)	GI50 (M14)	GI50 (RXF 393)	GI50 (SK-OV-3)	GI50 (OVCAR-5)	GI50 (MCF7)	GI50 (Hs-578T)	GI50 (HCT-15) [µM]	GI50 (DU-145)	GI50 (PC-3)
CN(C)/C=C/C(=CC=[N+](C)C)/C=C/N(C)C.[O-][Cl+3]([O-])([O-])[O-]	31.3 µM (inactive)	> 100 µM (inactive)	60.3 µM (inactive)	> 100 µM (inactive)	> 100 µM (inactive)	> 100 µM (inactive)	> 100 µM (inactive)	> 100 µM (inactive)	> 100 µM (inactive)	> 100 µM (inactive)	> 100 µM (inactive)	> 100 µM (inactive)	> 100 µM (inactive)	16.7 µM (inactive)	> 100 µM (inactive)					
Cc1cc2[nH]c3[nH]c(=O)[nH]c(=O)c3c2cc1C	> 100 µM (inactive)	27.1 µM (inactive)	> 100 µM (inactive)	47.1 µM (inactive)	> 100 µM (inactive)	> 100 µM (inactive)	97.1 µM (inactive)	> 100 µM (inactive)		> 100 µM (inactive)	> 100 µM (inactive)	> 100 µM (inactive)	> 100 µM (inactive)	> 100 µM (inactive)	> 100 µM (inactive)	> 100 µM (inactive)	69 µM (inactive)	> 100	> 100 µM (inactive)	
N#CC(NNC(=O)c1c(Cl)c(Cl)c(Cl)c(Cl)c1-c1nc2cc(C(=O)c3ccccc3)ccc2[nH]1)c1cccc(Oc2ccccc2)c1 (stereo unspecified)	20.8 µM (inactive)	20.6 µM (inactive)	15.6 µM (inactive)	15.4 µM (inactive)	26.4 µM (inactive)	30.8 µM (inactive)		21.3 µM (inactive)	24.3 µM (inactive)	38.1 µM (inactive)		25.6 µM (inactive)	16.9 µM (inactive)	33.8 µM (inactive)	28.7 µM (inactive)	20.3 µM (inactive)		18.4	28.3 µM (inactive)	18.8 µM (inactive)
Cc1ccc(Nc2sc(C)cc2C#N)c([N+](=O)[O-])c1	> 100 µM (inactive)	> 100 µM (inactive)	99.8 µM (inactive)		> 100 µM (inactive)	> 100 µM (inactive)	> 100 µM (inactive)	> 100 µM (inactive)	> 100 µM (inactive)	> 100 µM (inactive)	> 100 µM (inactive)	> 100 µM (inactive)	53.3 µM (inactive)	> 100 µM (inactive)	> 100 µM (inactive)	> 100 µM (inactive)		67.3	> 100 µM (inactive)	> 100 µM (inactive)
Cc1ncc(CSC(=N)N)n1Cc1ccccc1	> 100 µM (inactive)			82.6 µM (inactive)	65.8 µM (inactive)	> 100 µM (inactive)	> 100 µM (inactive)	> 100 µM (inactive)	> 100 µM (inactive)	29.7 µM (inactive)	24.7 µM (inactive)	48.1 µM (inactive)	7.78 µM (inactive)	> 100 µM (inactive)	> 100 µM (inactive)	39.5 µM (inactive)	95.7 µM (inactive)	> 100	22.5 µM (inactive)	> 100 µM (inactive)
CC(CNC(N)=O)NC(N)=O (stereo unspecified)	> 100 µM (inactive)		> 100 µM (inactive)	> 100 µM (inactive)	> 100 µM (inactive)	> 100 µM (inactive)	> 100 µM (inactive)	> 100 µM (inactive)	> 100 µM (inactive)	> 100 µM (inactive)	> 100 µM (inactive)	> 100 µM (inactive)	> 100 µM (inactive)	> 100 µM (inactive)	> 100 µM (inactive)	> 100 µM (inactive)	> 100 µM (inactive)	> 100	> 100 µM (inactive)	> 100 µM (inactive)
Cc1c(C(=O)Nc2ccccc2)nnn1-c1ccnc2cc(C(F)(F)F)ccc12	82.8 µM (inactive)		39.4 µM (inactive)	20.5 µM (inactive)	50.6 µM (inactive)	30.4 µM (inactive)	71.9 µM (inactive)	57.4 µM (inactive)	> 100 µM (inactive)	22.1 µM (inactive)	64.7 µM (inactive)	41.9 µM (inactive)	35.3 µM (inactive)	> 100 µM (inactive)	> 100 µM (inactive)	56.5 µM (inactive)	> 100 µM (inactive)	45.3	49.3 µM (inactive)	30.1 µM (inactive)
CCOC(=O)c1nnsc1NC(=O)Nc1ccc(Cc2ccc(NC(=O)Nc3snnc3C(=O)OCC)cc2)cc1			> 100 µM (inactive)	29.6 µM (inactive)	43.6 µM (inactive)	> 100 µM (inactive)	76 µM (inactive)	31.9 µM (inactive)	> 100 µM (inactive)	> 100 µM (inactive)		> 100 µM (inactive)	18.2 µM (inactive)	21.8 µM (inactive)	> 100 µM (inactive)	71.8 µM (inactive)	69.5 µM (inactive)	> 100	32.8 µM (inactive)	66.4 µM (inactive)
